According to ChEMBL document CHEMBL1148105, “Bioactive metabolites from a marine-derived strain of the fungus Emericella variecolor” (2002):

How the values were obtained:
Type in all cases: functional
Enterococcus faecalis = assay: Antimicrobial activity against Enterococcus faecalis
Bacillus subtilis = assay: Antimicrobial activity against Bacillus subtilis
Staphylococcus aureus = assay: Antimicrobial activity against Staphylococcus aureus
Escherichia coli = assay: Antimicrobial activity against Escherichia coli

Measured: MIC

C=C(C)[C@H]1COc2c(C)cc3oc4c(CC=C(C)C)ccc(O)c4c(=O)c3c2[C@@H]1O [SHAMIXANTHONE]
50 µg/mL: all assays above

C=C(C)[C@H]1COc2c(C)cc3oc4c(C[C@H](O)C(C)(C)O)ccc(O)c4c(=O)c3c2[C@@H]1O.O [TAJIXANTHONE HYDRATE]
50 µg/mL: all assays above
